The text below walks through data of PubChem BioAssay (NCI).

Test systems include BT-549 breast; HCT-116 colon; HCT-15 colon; HT29 colon; NCI-H226 lung; NCI-H23 lung; OVCAR-3 ovarian; SF-539 CNS; SN12C renal; SNB-19 CNS; SNB-75 CNS; SR leukemia; TK-10 renal; U251 CNS; UO-31 renal.
Holding throughout (assay): growth of human tumour cells (NCI), 48 h

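Where inhibition never reached the appropriate level, the endpoint shown equals the highest concentration tested. Otherwise, values were interpolated linearly from a five-concentration, 48-hour dose response in 96-well plates. The concentration for full growth arrest is given as TGI.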

Consider `CCCCCCOc1ccc(C(=O)NO)cc1`, for which the TGI stood at 72.8 µM in the experiment on BT-549 breast; 21.5 µM in the experiment with HCT-116 colon; 16.1 µM in the experiment with HCT-15 colon; 22.7 µM in the experiment with HT29 colon; 32.6 µM in the experiment with NCI-H226 lung; 23 µM in the experiment on NCI-H23 lung. Besides, the TGI in the experiment on OVCAR-3 ovarian is 28.6 µM; with SF-539 CNS it was 45.7 µM; in the experiment on SN12C renal it was 19.5 µM; with SNB-19 CNS, 54.8 µM; in the experiment on SNB-75 CNS, over 67.2 µM; in the experiment with SR leukemia, 23.6 µM. In addition, the TGI in the experiment with TK-10 renal is over 100 µM; in the experiment with U251 CNS, 28.9 µM; with UO-31 renal, 20.1 µM.
Consider `Cc1nc(N/N=C/c2ccccc2Cl)[nH]c(=O)c1CCO`, for which the TGI in the experiment with BT-549 breast, in the experiment on HCT-116 colon, in the experiment on HCT-15 colon, in the experiment with HT29 colon, in the experiment with NCI-H226 lung and with NCI-H23 lung was over 100 µM in each case. For the same compound, the TGI in the experiment on OVCAR-3 ovarian was 46.5 µM; with SF-539 CNS it was over 100 µM; in the experiment on SN12C renal it was over 100 µM; with SNB-19 CNS it was over 100 µM; with SNB-75 CNS, 41.4 µM; in the experiment on SR leukemia, over 100 µM. The TGI in the experiment with TK-10 renal, in the experiment with U251 CNS and in the experiment on UO-31 renal was over 100 µM each time.
Take `COc1ccc2cc(C(=O)O)ccc2c1OC`: the TGI in the experiment on BT-549 breast, in the experiment on HCT-116 colon, in the experiment with HCT-15 colon, in the experiment with HT29 colon, in the experiment on NCI-H226 lung and with NCI-H23 lung was over 100 µM in each case. For the same compound, the TGI with OVCAR-3 ovarian, in the experiment with SF-539 CNS, in the experiment on SN12C renal, in the experiment with SNB-19 CNS, in the experiment with SNB-75 CNS and with SR leukemia was over 100 µM throughout. The TGI in the experiment on U251 CNS and with UO-31 renal was over 100 µM throughout.
Consider `Nc1ccn(C2CCC(CO)O2)c(=S)n1` (configuration not stated), for which the TGI with BT-549 breast, with HCT-116 colon, in the experiment with HCT-15 colon, with HT29 colon, in the experiment with NCI-H226 lung and in the experiment with NCI-H23 lung was over 100 µM in each case. Also, the TGI in the experiment with OVCAR-3 ovarian, in the experiment with SF-539 CNS, in the experiment on SN12C renal, in the experiment with SNB-19 CNS, in the experiment on SNB-75 CNS and in the experiment with SR leukemia was over 100 µM in each case. For the same compound, the TGI in the experiment on TK-10 renal, with U251 CNS and in the experiment with UO-31 renal was over 100 µM each time.
`COc1cc(S(=O)(=O)Nc2ccc(-c3csc(N)n3)cc2)ccc1Cl`: the TGI was 43.1 µM with BT-549 breast; 29.7 µM with HCT-116 colon; 43.6 µM in the experiment on HCT-15 colon; 35.8 µM in the experiment on HT29 colon; 77.5 µM in the experiment on NCI-H226 lung; 40.1 µM in the experiment on NCI-H23 lung. In addition, the TGI in the experiment on OVCAR-3 ovarian is 28.9 µM; in the experiment on SF-539 CNS, over 100 µM; in the experiment with SN12C renal, 38.5 µM; in the experiment with SNB-19 CNS, 33.8 µM; in the experiment with SNB-75 CNS it was 39.2 µM; in the experiment with SR leukemia, 48.4 µM. For the same compound, the TGI in the experiment on UO-31 renal amounted to 37.2 µM.
For `CC(C)=NNC=N/C(C#N)=C(\N)C#N`, the TGI in the experiment with BT-549 breast, with HCT-116 colon, with HCT-15 colon, in the experiment with HT29 colon, with NCI-H226 lung and in the experiment with NCI-H23 lung was over 100 µM each time. The TGI with OVCAR-3 ovarian, in the experiment on SF-539 CNS, with SNB-19 CNS, in the experiment on SNB-75 CNS, in the experiment with SR leukemia and in the experiment on TK-10 renal was over 100 µM in each case. In addition, the TGI in the experiment on U251 CNS and in the experiment with UO-31 renal was over 100 µM each time.
On to `CC(=O)Nc1ccc(-c2nc3ccccc3s2)cc1I`, for which the TGI was 81 µM in the experiment with BT-549 breast; 81 µM with HCT-116 colon; over 100 µM in the experiment with HCT-15 colon; over 100 µM with HT29 colon; 59.4 µM in the experiment on NCI-H226 lung; 51.4 µM in the experiment on NCI-H23 lung. Moreover, the TGI in the experiment with OVCAR-3 ovarian is 32.4 µM; in the experiment on SF-539 CNS, 55.6 µM; in the experiment with SN12C renal it was over 100 µM; in the experiment on SNB-19 CNS it was over 87.5 µM; in the experiment with SNB-75 CNS it was 67.4 µM; with SR leukemia, over 100 µM. The TGI was over 81.6 µM in the experiment with U251 CNS and 67.9 µM in the experiment on UO-31 renal.
In the case of `C[C@]12CC/C(=N\O)C=C1CC[C@@H]1[C@@H]2CC[C@]2(C)C(=N/O)/C(=C/c3ccc([N+](=O)[O-])cc3)C[C@@H]12`, the TGI was 14.3 µM in the experiment with BT-549 breast; 14.2 µM with HCT-116 colon; over 100 µM in the experiment on HCT-15 colon; 21.9 µM with HT29 colon; over 100 µM with NCI-H226 lung; 75.2 µM with NCI-H23 lung. In addition, the TGI in the experiment with OVCAR-3 ovarian is 8.1 µM; with SF-539 CNS, over 100 µM; in the experiment on SN12C renal, 30.7 µM; in the experiment on SNB-19 CNS, over 100 µM; in the experiment on SNB-75 CNS it was 26.9 µM; with SR leukemia it was 9.26 µM. Also, the TGI in the experiment with TK-10 renal was found to be 91 µM; in the experiment with UO-31 renal it was 20.4 µM.
With `CC(NC(=O)c1ccccc1)NC(=O)C(C)C(=O)Nc1ccccc1` (configuration not stated), the TGI with BT-549 breast, in the experiment on HCT-116 colon, in the experiment with HCT-15 colon, with HT29 colon, in the experiment with NCI-H226 lung and in the experiment on NCI-H23 lung was over 100 µM each time. In addition, the TGI was over 100 µM in the experiment with SF-539 CNS; over 100 µM with SN12C renal; 71.7 µM in the experiment with SNB-19 CNS; over 100 µM in the experiment with SNB-75 CNS; over 100 µM in the experiment with SR leukemia; over 100 µM with TK-10 renal. Also, the TGI with U251 CNS and with UO-31 renal was over 100 µM each time.
Turning to `O=c1[nH]nc(Cc2ccccc2)n1/N=C\c1ccccc1`, the TGI in the experiment with BT-549 breast, with HCT-116 colon, in the experiment with HCT-15 colon, with HT29 colon, in the experiment on NCI-H226 lung and in the experiment on NCI-H23 lung was over 100 µM each time. Besides, the TGI in the experiment with OVCAR-3 ovarian, with SF-539 CNS, in the experiment with SN12C renal, in the experiment with SNB-75 CNS, in the experiment with SR leukemia and with TK-10 renal was over 100 µM in each case. Besides, the TGI with U251 CNS and in the experiment on UO-31 renal was over 100 µM throughout.
